These results are taken from PMC9877316, “Identification of a novel P2X7 antagonist using structure-based virtual screening” (Frontiers in Pharmacology, 2023).

This experiment addresses T1, rat P2X7-GFP (Rattus norvegicus, UniProt Q64663).
T1 construct: expressed in transfected cells; host or cells: HEK-293 cells stably expressing rat P2X7-GFP (patch clamp)
T1 sequence (Q64663 1-595): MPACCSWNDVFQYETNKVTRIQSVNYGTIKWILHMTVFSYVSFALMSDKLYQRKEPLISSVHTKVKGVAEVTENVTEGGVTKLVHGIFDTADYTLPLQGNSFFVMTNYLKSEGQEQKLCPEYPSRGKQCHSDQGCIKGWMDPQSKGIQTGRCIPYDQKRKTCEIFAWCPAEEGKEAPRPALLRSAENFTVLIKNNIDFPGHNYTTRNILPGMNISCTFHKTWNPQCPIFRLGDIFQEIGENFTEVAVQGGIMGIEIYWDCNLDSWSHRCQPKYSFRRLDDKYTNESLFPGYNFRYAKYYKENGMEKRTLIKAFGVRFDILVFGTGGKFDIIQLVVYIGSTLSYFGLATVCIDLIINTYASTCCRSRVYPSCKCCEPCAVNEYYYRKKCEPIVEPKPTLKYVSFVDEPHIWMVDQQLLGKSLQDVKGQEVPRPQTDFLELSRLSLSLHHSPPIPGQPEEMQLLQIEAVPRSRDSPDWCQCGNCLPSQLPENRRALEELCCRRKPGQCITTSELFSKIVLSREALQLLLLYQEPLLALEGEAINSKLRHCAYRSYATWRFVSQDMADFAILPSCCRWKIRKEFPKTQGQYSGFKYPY
The experiment can be described thus: Whole-cell patch clamp electrophysiology. In kind it is cell-based. On the procedure:
Whole-cell patch-clamp traces were recorded at room temperature using patch pipettes pulled from borosilicate glass (World Precision Instruments, Sarasota, FL, United States). Pipettes were filled with internal solution (IS) containing (in mM): 145 NaCl, 10 EGTA and 10 HEPES, with the pH adjusted to 7.3 with NaOH and had resistances of 3–5 MΩ. Cells were constantly perfused in a bath with ECS-LD. Currents were recorded at a holding membrane potential of −60 mV using an Axon Instruments Axopatch Multiclamp 700A amplifier and Digidata 1322A A/D interface (Molecular Devices, Sunnyvale, CA, United States). […] ATP applications were made at 90-s intervals. Solutions were applied to patch-clamped cells with the help of a rapid perfusion system (RSC-160, Biologic, Claix, France), allowing solution exchange times in the range […].
In order to confirm GP-25 as a competitive (orthosteric) antagonist, BzATP concentration-response curves (ranging between 300 μM and .03 µM) were constructed for rat P2X7-GFP in the YoPro-1 uptake assay in the presence of increasing concentrations of GP-25 (Figure 3A).

Consider `COC(=O)C1=C(C)NC2=C(C(=O)c3ccccc32)C1c1cc(Br)ccc1OCC(=O)O` (centres unmarked) [Compound 9, (4-bromo-2-(3-(methoxycarbonyl)-2-methyl-5-oxo-4,5-dihydro-1H-indeno(1,2-b)pyridine-4-yl)phenoxy)acetic acid], for which the “reduction in P2X7 activity at 25 µM” value (25 µM compound, patch clamp) is reported as “statistically significant reduction”. In addition, the “inhibition of ATP-evoked currents” value (GP-25 pre-applied for 2 min, 300 µM ATP, HEK-293 cells) was “concentration-dependent inhibition”.
